Assay results published in patent publication US8198432B2, “Porphyrin-based compounds for tumor imaging and photodynamic therapy” (Health Research, Inc., priority 2005, dated 2012).
Values joined by “and” are separate entries in the source; they are usually repeats but may differ in a detail not shown here. Equal entries are not always repeated.

Legend:
RIF tumors [1] = experiment: in vivo tumor imaging with small animal PET scanner; conditions: C3H mice bearing RIF tumors
Protocol: In initial experiments, the 1-124 labeled photosensitizer 2 at variable radioactive doses (35, 50 and 100 µCi) was injected in three sets of C3H mice (3 mice/group, bearing RIF tumors at the shoulder) respectively and the images were taken with a small animal PET scanner at 24, 48 and 72 h time intervals (FIG. 6 images A, B, and C). In all radioactive doses, the best images were obtained at 48 h post injection of the drug.

[2] = biodistribution of the I-124 PET agent in selected organs; type: in vivo, mice; parameters: unit not given here; conditions: 48 h post injection, per gram of organ
Protocol: After PET imaging at 48 h post-injection, a group of mice (3 mice/group) were sacrificed and the biodistribution of the I-124 PET agent in selected organs/gram were determined.

RIF tumor cells = experiment: in vitro photosensitizing efficacy (PDT, MTT assay) in RIF tumor cells; type: cell-based; parameters: in vitro photosensitizing efficacy compared with HPPH: dose or concentration left out as unconfirmed
Protocol: For evaluating in vitro photosensitizing efficacy of 3-iodobenxyloxyethyl-pyropheophorbide-a 2, RIF tumor cells were grown in alpha-DMEM with 10% fetal calf serum, penicillin and streptomycin. Cells were maintained in 5% CO2, 95% air and 100% humidity. For determining the PDT efficacy, these cells were plated in 96-well plates and a density of 1×10^4 cells well in complete media. After overnight incubation to allow the cells to attach, the HPPH and the related cold-iodo derivative 2 were individually added at variable concentrations. After 3 hr incubation in the dark at 37° C., the cells were washed once with PBS, and irradiated with light. After light treatment, the cells were washed once and placed in complete media and incubated for 48 hrs. Then 10 μl of a 4-mg/ml solution of MTT was added to each well. After incubating for 4 hr at 37° C. the MTT+ media were removed and 100 μl DMSO was added to solubilize the formazin crystals. The 96-well plate was read on a microtiter plate reader at an absorbance of 560 nm. The optimal cell kill was obtained at a concentration of 1.00 µM. The results were plotted as percent survival of the corresponding dark (drug no light) control for each compound tested. (FIG. 4) Each data point represents the mean from 3 separate experiments, and the error bars are the standard deviation. Each experiment used 5 replicate wells.

RIF cells = experiment: preliminary screening of aromatic alkyl ethers for in vitro and in vivo efficacy (RIF cells); type: cell-based
Description: There are several methods for labeling the compounds with iodine isotopes. Conversion of the cold iodo- to radioactive iodo- is possible, but the specific activity of the resulting product is low. […] Therefore, we prepared a series of aromatic alkyl ethers and evaluated them for in vitro (RIF cells) and in vivo efficacy (RIF cells).

RIF tumors [3] = experiment: in vivo photosensitizing efficacy, tumor re-growth after laser light; conditions: C3H mice bearing RIF tumors, light at 665 nm for 30 minutes
Protocol: The in vivo efficacy was determined in C3H mice bearing RIF tumors (5 mice/group). The tumors were exposed to light at 665 nm (in vivo absorption) with a laser light ([…]) for 30 minutes. The tumor-regrowth was measured everyday (for details see ‘Methods’ part of the project). […] Further studies to optimize the treatment conditions at variable fluence and fluence-rates and time intervals are currently in progress.

CCC1=C(C)c2cc3[nH]c(cc4nc(c5c6[nH]c(cc1n2)c(C)c6C(=O)C5)[C@@H](CCC(=O)OC)[C@@H]4C)c(C)c3C(C)OCc1cccc([124I])c1 (stereo partly drawn) [I-124 labeled photosensitizer 4]
presence of the compound in organs other than tumor on PET images (RIF tumors [1]): especially in liver was evident
biodistribution, Blood ([2]; AVG of 3 mice): 1.12
biodistribution, Gut ([2]; AVG of 3 mice): 2.47
biodistribution, Heart ([2]; AVG of 3 mice): 0.99
biodistribution, Kidney ([2]; AVG of 3 mice): 1.10
biodistribution, Liver ([2]; AVG of 3 mice): 3.31
biodistribution, Lungs ([2]; AVG of 3 mice): 1.09
biodistribution, Muscle ([2]; AVG of 3 mice): 0.35
biodistribution, Spleen ([2]; AVG of 3 mice): 2.11
biodistribution, Stomach ([2]; AVG of 3 mice): 1.02
biodistribution, Tumor ([2]; AVG of 3 mice): 2.22
biodistribution, Blood ([2]; individual mouse (Mouse 1-3)): 1.47 and 1.33 and 0.57
biodistribution, Gut ([2]; individual mouse (Mouse 1-3)): 3.6 and 2.22 and 1.69
biodistribution, Heart ([2]; individual mouse (Mouse 1-3)): 0.79 and 1.21 and 0.98
biodistribution, Kidney ([2]; individual mouse (Mouse 1-3)): 1.09 and 1.21 and 0.99
biodistribution, Liver ([2]; individual mouse (Mouse 1-3)): 3.46 and 3.22 and 3.26
biodistribution, Lungs ([2]; individual mouse (Mouse 1-3)): 0.99 and 1.29 and 1.00
biodistribution, Muscle ([2]; individual mouse (Mouse 1-3)): 0.18 and 0.49 and 0.37
biodistribution, Spleen ([2]; individual mouse (Mouse 1-3)): 2.04 and 2.23 and 2.05
biodistribution, Stomach ([2]; individual mouse (Mouse 1-3)): 1.3 and 0.66 and 1.10
biodistribution, Tumor ([2]; individual mouse (Mouse 1-3)): 2.4 and 2.15 and 2.10

CCC1=C(C)c2cc3[nH]c(cc4nc(c5c6[nH]c(cc1n2)c(C)c6C(=O)C5)[C@@H](CCC(=O)OC)[C@@H]4C)c(C)c3C(C)OCc1cccc(I)c1 (stereo partly drawn) [Compound 2]
concentration at which the optimal cell kill was obtained (RIF tumor cells; 3 hr incubation in the dark, light, MTT after 48 hrs): 1.00 µM
in vitro photosensitizing efficacy compared with HPPH (RIF tumor cells; FIG. 4): slightly more effective
efficacy in preliminary screening compared with HPPH (RIF cells): as effective as HPPH
time at which tumor re-growth was observed (RIF tumors [3]; dose 0.25 […]mole/kg): 10 days post-injection
time at which tumor re-growth was observed (RIF tumors [3]; dose 0.50 […]mole/kg): 15 days post-injection
in vivo efficacy (PDT) (RIF tumors [3]; dose of 1.0 and 1.5 µmol/kg, 24 hours post injection): quite effective
